The nature of the data set: gradient 5% acetonitrile 3 min, to 50% in 2 min, to 85% in 15 min, held 3 min, 100 µL/min. Conditions: column: Zorbax Extend-C18 2.1 x 50 mm; eluents: water / acetonitrile, 0.1% formic acid. In short, it runs like this:
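Each retention time is based on an adduct peak selected computationally and verified by manual inspection. Measurements used HPLC–quadrupole time-of-flight mass spectrometry in positive and negative ionization mode on mixtures of ~100 pure standards. Chromatography ran on a Zorbax Extend-C18 column (2.1 × 50 mm, 1.8 μm) at 100 μL/min with water and acetonitrile, each containing 0.1% formic acid, and dead and dwell volumes of 40 μL and 900 μL.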
Compound `Cc1nc(C(=O)NCc2ccc(F)cc2Cl)c(C)o1` registered an RP-LC retention time of 874 s.

`CCN1CCCn2cc(S(=O)(=O)NC3CCN(Cc4ccccc4)CC3)cc2C1=O` displayed an RP-LC retention time of 597 s. Take `Cc1ccc(-c2cn3ccn(-c4ccc(F)c(Cl)c4)c(=O)c3n2)cc1`: the RP-LC retention time was found to be 927 s. Consider `COc1cccc(C2Cn3nnc(-c4nc(-c5ccccc5Br)no4)c3CO2)c1` (centres undefined), for which the RP-LC retention time was 1170 s.

`COc1ccccc1CNC(=O)CN1CCN(Cc2ccccc2F)C1=O`: the RP-LC retention time is 715 s. `Cc1cccc(Cl)c1NC(=O)/C=C/c1ccccc1` gave an RP-LC retention time of 850 s. Consider `COc1ccccc1-c1noc(C2CCCN2C(=O)CSc2ccncc2)n1` (centres undefined), for which the RP-LC retention time turned out to be 611 s. Under `CCN1C(=O)c2cccnc2Sc2cc(NC(=O)c3ccc(F)cc3)ccc21` stands 832 s; under `CCN1C(=O)c2cc(C(=O)NCc3ccccc3Cl)nn2CC1(C)C(=O)NC1CCCC1` (centres undefined), 817 s; under `Cc1c(C)c2cc3c(=O)ccoc3c(C)c2oc1=O`, 780 s. Regarding `CC(C)(C)C(=O)Nc1nc(CC(=O)NCCC2=CCCCC2)cs1`, the RP-LC retention time stood at 814 s. `CN1C(=O)c2ccccc2Sc2ccc(NC(=O)N3CCC(C(N)=O)CC3)cc21`: the RP-LC retention time came out at 1430 s. For `CCc1ccc(C(=O)N2CCN(c3nnc4cccc(C)n34)CC2)cc1` the value was 691 s; for `COc1ccc(C2C(=O)N(C3CCC(C)CC3)CC(=O)N2Cc2ccco2)cc1OC` (centres undefined), 883 s; for `CCN(CC)C(=O)c1cc(=O)n(CC(=O)NC2CCCC2)c2ccccc12`, 685 s. Compound `Cc1ccc(-c2nc(-c3cccc(-c4ccnn4C)c3)no2)s1` registered an RP-LC retention time of 1160 s.

The compound `CS(=O)(=O)c1ccc(NC(=O)C2CN(C(=O)c3ccc(F)c(F)c3)C2)cc1` returned an RP-LC retention time of 661 s.

For the compound `Cc1sc2ncnc(N3CCCC(C)C3)c2c1C(=O)Nc1ccc(C(F)(F)F)cc1` (centres undefined), the RP-LC retention time was determined as 1340 s. Take `CCn1c(=O)c2ccccc2n(CC(=O)N2CCC(C(N)=O)CC2)c1=O`: the RP-LC retention time came out at 601 s.

Regarding `Cn1nnc2cc(-c3noc(CN4C(=O)COc5ccccc54)n3)ccc21`, the RP-LC retention time was found to be 803 s.

With `CCC1CCCCN1C(=O)c1cnc2nc(C)ccc2c1Nc1cc(C)cc(C)c1` (centres undefined), the RP-LC retention time was 722 s.

For `COc1ccccc1NC(=O)N1CCC2(C1)C(=O)N(C)c1ccccc12` (centres undefined), the RP-LC retention time was found to be 818 s. Compound `Cn1cccc1C(=O)N1C[C@@H]2C[C@H]1C[C@@H]2NC(=O)c1cccs1` returned an RP-LC retention time of 700 s. For the compound `COc1ccc(-c2cc(C(=O)NC3CCCC3)nn2C2CCS(=O)(=O)C2)cc1` (centres undefined), the RP-LC retention time stood at 849 s. In turn, `CCOc1ccccc1NC(=O)N1CCN(C(=O)N2C[C@H]3C[C@@H](C2)[C@H]2CCCC(=O)N2C3)CC1` yielded an RP-LC retention time of 687 s. Under `C=CCn1c(=O)c2ccccc2n(Cc2nc(-c3ccc(SC)cc3)no2)c1=O` stands 1100 s; under `COc1cc(OC)c(NC(=O)NC2CCN(c3ccc(F)cc3)C2=O)cc1Cl` (centres undefined), 854 s. For the compound `CCc1onc(C)c1C1CCCN1C(=O)Nc1cccc(C)c1` (centres undefined), the RP-LC retention time was 842 s. Regarding `Cc1sc(-c2nc(-c3ccccc3)no2)cc1S(=O)(=O)N1CCN(c2ncccn2)CC1`, the RP-LC retention time turned out to be 1210 s.

Regarding `O=C(c1ccc(F)cc1F)N1CCN(c2nc(CN3CCCC3)cs2)CC1`, the RP-LC retention time came out at 613 s. Turning to `CC1CCN(S(=O)(=O)c2ccc3nn(CC#N)c(=O)n3c2)CC1`, the RP-LC retention time was 813 s. For `CC(C)c1cccc(NC(=O)C2CCN(C(=O)c3ncn4c3COC(c3ccccc3)C4)CC2)c1` (centres undefined) the value was 921 s.

`O=C(CNC(=O)Cc1ccc(Cl)cc1)NCC(=O)N1CCCc2ccccc21` registered an RP-LC retention time of 770 s. Under `CCCNC(C)C(=O)Nc1c(C)csc1C(=O)OC` (centres undefined) stands 652 s; under `Clc1cccc(-c2nnc(Cc3nc(-c4ccc5c(c4)OCO5)no3)o2)c1`, 1020 s; under `CCCS(=O)(=O)Nc1ccc(F)c(C(=O)c2c[nH]c3ncc(Cl)cc23)c1F`, 878 s. The compound `COc1cccc(CNC(=O)Cn2c(N3CCCC3)nc(C)cc2=O)c1` had an RP-LC retention time of 770 s. Take `O=C(COc1ccc(Cl)cc1)NCC#CCN1CCCC1`: the RP-LC retention time worked out at 544 s.

The compound `CNC(=O)c1cn(-c2ccc(-c3nc(C(C)(C)C)no3)cn2)cn1` showed an RP-LC retention time of 806 s. Compound `Cc1noc(-c2cccn2Cc2ccc(Cl)cc2)n1` had an RP-LC retention time of 1090 s.

In turn, `CCOC(=O)C(=O)Nc1ccc(SCc2nnc(-c3ccc4c(c3)OCO4)o2)cc1` returned an RP-LC retention time of 866 s.

In turn, `Cc1nn(C(C)C(=O)NCCCN(C)c2ccccc2)c(=O)c2c(C)n(-c3ccccc3)nc12` (centres undefined) gave an RP-LC retention time of 655 s. Consider `COc1ccc(CNC(=O)C2CCCN(c3nnc4ccc(C(F)(F)F)cn34)C2)cc1` (centres undefined), for which the RP-LC retention time was determined as 783 s. `Cc1noc(-c2ccc(-n3cnc(C(=O)NCc4ccc(Cl)cc4)c3)nc2)n1` registered an RP-LC retention time of 865 s. `COC[C@@H]1CN(S(=O)(=O)c2ccccc2)C[C@H]1c1nc(C)no1` registered an RP-LC retention time of 803 s. `CC(=O)N1c2ccc(S(=O)(=O)N3CCCC3)cc2CC1C(=O)NCCN1CCCCCC1` (centres undefined) registered an RP-LC retention time of 630 s.

`O=C(c1ccc2ccnc(N3CCN(c4ccc(Cl)cc4)CC3)c2c1)N1CCCCC1` had an RP-LC retention time of 894 s.

On to `COc1ccccc1CCC(=O)N1C[C@@H]2C[C@H](NS(C)(=O)=O)[C@H]1C2`, for which the RP-LC retention time is 678 s.

Consider `Cc1oc(-c2ccc(C(=O)NCCCN3CCOCC3)cc2)nc1CN1CCc2ccccc21`, for which the RP-LC retention time came out at 603 s. For `O=C(c1ccccc1OCC1CCCN(C2CCC3(CC2)OCCO3)C1)N1CCCC1` (centres undefined) the value was 622 s. Turning to `COc1cccc(CNC(=O)C2CCCN(C(=O)c3[nH]c(C)c(C(=O)OC(C)C)c3C)C2)c1` (centres undefined), the RP-LC retention time turned out to be 845 s. As for `COc1ccc(-c2cc3c(=O)n(CC(=O)N4CCCC4)ncn3n2)cc1`, the RP-LC retention time is 746 s. Compound `COc1cccc(S(=O)(=O)N2CCOCCNC(=O)[C@@H]3CCC[C@@H]32)c1` yielded an RP-LC retention time of 740 s. For `Cn1nc(-c2nnc(-c3ccc(F)cc3)o2)c2c1CCN(S(=O)(=O)c1ccc(F)cc1)C2` the value was 903 s; for `CCCN1C(=O)c2cc(C(=O)NCc3ccc(C)cc3)nn2CC1(C)C(=O)NC1CCCC1` (centres undefined), 854 s; for `COc1ccc(-c2nc(-c3cn(-c4ccc(C)cc4)nn3)no2)cc1OC`, 1050 s. Under `CCn1c(=O)c2c(cc(C)n2C)n(CC(=O)Nc2cc(Cl)ccc2C)c1=O` stands 810 s. For `COc1ccccc1NC(=O)N1C[C@H](c2nc(-c3ccccc3)no2)[C@@H](C)C1` the value was 883 s; for `O=C(Cn1c(CO)nc2ccccc21)N1CCCC1`, 565 s. For `COc1cccc(-n2nnc(C(=O)O)c2-c2ccncc2)c1`, the RP-LC retention time worked out at 628 s. Under `CCCCNC(=O)C1CCCN(c2nnc3ccc(C(F)(F)F)cn23)C1` (centres undefined) stands 751 s; under `O=C(Cn1c(=O)n(C2CCCCC2)c2ncccc21)NCCN1CCOCC1`, 627 s; under `O=c1cc(O)cc(/C=C/c2ccc(O)c(O)c2)o1`, 680 s. As for `CCCN(CCC)C(=O)C1CCC(=O)N1S(=O)(=O)c1ccc(C)cc1` (centres undefined), the RP-LC retention time was determined as 943 s. Under `COc1cccc(-c2noc(CN3C(=O)COc4ccccc43)n2)c1` stands 981 s. Under `CCCNc1cc(N2CCCC(CCC(=O)N(CC)CC)C2)ncn1` (centres undefined) stands 658 s. `COCCNC(=O)C1CN(S(=O)(=O)c2ccccc2)CC12CCCCC2` (centres undefined) yielded an RP-LC retention time of 811 s. The compound `CCOC(=O)N1CCN(C2CC(=O)N(CCc3ccc(OC)c(OC)c3)C2=O)CC1` (centres undefined) returned an RP-LC retention time of 659 s. With `Cc1ccc(NC(=O)C2CCCN2S(=O)(=O)c2cc3c(cc2Cl)NC(=O)CO3)c(C)c1` (centres undefined), the RP-LC retention time is 868 s. `CCCC(CCC)C(=O)Nc1cc(-c2cn3cccnc3n2)ccc1C` had an RP-LC retention time of 758 s.

`CCOC(=O)c1ccc(Nc2nc(N3CCCC3)nc(N3CCCC3)n2)cc1` registered an RP-LC retention time of 772 s.

`Cc1nn(-c2ccc(N3CCCCC3)nn2)c(C)c1CCC(=O)N1CCN(c2ncccn2)CC1` had an RP-LC retention time of 656 s. In the case of `O=C(C1CCCN(c2ccc(Sc3ccc(Br)cc3)nn2)C1)N1CCSCC1` (centres undefined), the RP-LC retention time stood at 932 s. For `Cc1cc(C(=O)NCc2ccsc2)no1` the value was 700 s. Consider `O=c1ccc(N2CCC(NS(=O)(=O)c3cccnc3)CC2)nn1CC1CC1`, for which the RP-LC retention time was found to be 700 s.

In turn, `O=C(c1cn(-c2ccc(S(=O)(=O)N3CCOCC3)cc2)cn1)N1CCN(c2ccccn2)CC1` gave an RP-LC retention time of 598 s.

Compound `O=C(Nc1nnc(C2CC(=O)N(c3ccccc3)C2)o1)c1cccc(F)c1` (centres undefined) displayed an RP-LC retention time of 711 s. `C=C(C)[C@H]1O[C@H]2CC[C@@]3(C)[C@@](O)(CC[C@H]4[C@@H]5OC(C)(C)[C@H]6C[C@@H]7C(=C)Cc8c(Cl)cc9[nH]c(c5c9c8[C@@]76O)[C@@]43C)[C@]23O[C@@H]3[C@H]1O` registered an RP-LC retention time of 1180 s. As to `Cc1ccccc1C(=O)NC1CCN(c2cc(-c3cccs3)[nH]n2)C1` (centres undefined), the RP-LC retention time turned out to be 705 s.

The values above are taken from the METLIN SMRT retention time set (Domingo-Almenara et al. 2019).
